Tests used:
[1] = tested on: KMS-12-BM (Plasma Cell Myeloma); assay: combination Emax (second highest fraction inhibited in the dose matrix, 72 h); higher = more inhibition; extreme values may be limits of the assay
Outline: (§1)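 Cell lines in DMEM/F12 or RPMI with 10% FBS were plated in 1536-well plates, held 24 hours at 37°C, 5% CO2, then given two-drug dose matrices for 72 hours (DMSO typically 0.2%). Viability was read by CellTiter-Glo 2.0 luminescence and scaled as inhibition from 0 (vehicle wells) to 1 (blank wells). Combination Emax is the second-highest inhibition in the matrix; Bliss excess is observed combination effect minus expected EA + EB − EA·EB, EA and EB being single-agent effects.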

[2] = tested on: VMRC-RCZ (Kidney Carcinoma); assay: as above
Outline: as §1

| Structure (SMILES) | combination Emax [1] | combination Emax [2] |
| --- | --- | --- |
| CC1(C)CCC(CN2CCN(c3ccc(C(=O)NS(=O)(=O)c4ccc(NCC5CCOCC5)c([N+](=O)[O-])c4)c(Oc4cnc5[nH]ccc5c4)c3)CC2)=C(c2ccc(Cl)cc2)C1 [Venetoclax] + Cc1cc2ncnn2cc1Nc1ncc2c(n1)n(C1CCOCC1)c(=O)n2C [AZD7648] (first compound max 1 µM, 7x7, partner max 10 µM) | 1 | 0.112 |
| CC1(C)CCC(CN2CCN(c3ccc(C(=O)NS(=O)(=O)c4ccc(NCC5CCOCC5)c([N+](=O)[O-])c4)c(Oc4cnc5[nH]ccc5c4)c3)CC2)=C(c2ccc(Cl)cc2)C1 [Venetoclax] + COc1cc(Nc2ncc3c(n2)-c2ccc(Cl)cc2C(c2c(F)cccc2OC)=NC3)ccc1C(=O)O [Alisertib] (first compound max 1 µM, 7x7, partner max 10 µM) | 1 | 0.21 |
| Cc1c2c(nn1C)CSCc1cc(n(C)n1)CSc1cc(c3ccccc3c1)OCCCc1c(C(=O)O)n(C)c3c-2c(Cl)ccc13 [AZD5991] + C=CCn1c(=O)c2cnc(Nc3ccc(N4CCN(C)CC4)cc3)nc2n1-c1cccc(C(C)(C)O)n1 [AZD1775] (first compound max 1 µM, partner max 1 µM) | 1 |  |
| Cc1c2c(nn1C)CSCc1cc(n(C)n1)CSc1cc(c3ccccc3c1)OCCCc1c(C(=O)O)n(C)c3c-2c(Cl)ccc13 [AZD5991] + C1CN(CCC1(C(=O)N[C@@H](CCO)C2=CC=C(C=C2)Cl)N)C3=NC=NC4=C3C=CN4 [Capivasertib] (first compound max 1 µM, 7x7, partner max 3 µM) | 1 | 0.336 |
| Cc1c2c(nn1C)CSCc1cc(n(C)n1)CSc1cc(c3ccccc3c1)OCCCc1c(C(=O)O)n(C)c3c-2c(Cl)ccc13 [AZD5991] + Cc1cc2ncnn2cc1Nc1ncc2c(n1)n(C1CCOCC1)c(=O)n2C [AZD7648] (first compound max 1 µM, 7x7, partner max 10 µM) | 1 | 0.191 |
| COc1cccc2c1C(=O)c1c(O)c3c(c(O)c1C2=O)C[C@@](O)(C(=O)CO)C[C@@H]3O[C@H]1C[C@H](N)[C@H](O)[C@H](C)O1 [Doxorubicin] + Cc1cc2ncnn2cc1Nc1ncc2c(n1)n(C1CCOCC1)c(=O)n2C [AZD7648] (first compound max 1 µM, 7x7, partner max 10 µM) | 0.84 | 0.317 |
| C[C@@H]1COCCN1c1cc(C2([S@](C)(=N)=O)CC2)nc(-c2ccnc3[nH]ccc23)n1 [AZD6738] + O=C(c1cc(Cc2n[nH]c(=O)c3ccccc23)ccc1F)N1CCN(C(=O)C2CC2)CC1 [Olaparib] (first compound max 10 µM, 7x7, partner max 10 µM) | 0.945 | 0.319 |
| COc1cccc(OCCCN)c1-c1cc(Nc2cnc(C#N)cn2)n[nH]1 [Prexasertib] + C[C@@H]1COCCN1C2=NC(=NC(=C2)C3(CC3)[S@](=N)(=O)C)C4=C5C=CNC5=NC=C4 [AZD6738] (first compound max 1 µM, 7x7, partner max 10 µM) | 1 | 0.398 |
| Cc1c2c(nn1C)CSCc1cc(n(C)n1)CSc1cc(c3ccccc3c1)OCCCc1c(C(=O)O)n(C)c3c-2c(Cl)ccc13 [AZD5991] + CCN(CCO)CCCOc1ccc2c(Nc3cc(CC(=O)Nc4cccc(F)c4)[nH]n3)ncnc2c1 [AZD2811] (first compound max 1 µM, 7x7, partner max 1 µM) | 1 | 0.221 |
| C[C@@H](c1ccc2nccn2c1)n1nnc2ncc(-c3cnn(C)c3)nc21 [Savolitinib] + CN(CC[C@H](CSC1=CC=CC=C1)NC2=C(C=C(C=C2)S(=O)(=O)NC(=O)C3=CC=C(C=C3)N4CCC(CC4)[C@H](C5=CC=CC=C5C6=CC=C(C=C6)Cl)O)S(=O)(=O)C(F)(F)F)CCO [AZD4320] (first compound max 1 µM, 7x7, partner max 1 µM) | 1 |  |
| Cc1cc2ncnn2cc1Nc1ncc2c(n1)n(C1CCOCC1)c(=O)n2C [AZD7648] + O=C(c1cc(Cc2n[nH]c(=O)c3ccccc23)ccc1F)N1CCN(C(=O)C2CC2)CC1 [Olaparib] (first compound max 10 µM, 7x7, partner max 10 µM) | 0.429 | 0.129 |
| CCN(CCO)CCCOc1ccc2c(Nc3cc(CC(=O)Nc4cccc(F)c4)[nH]n3)ncnc2c1 [AZD2811] + O=C(c1cc(Cc2n[nH]c(=O)c3ccccc23)ccc1F)N1CCN(C(=O)C2CC2)CC1 [Olaparib] (first compound max 1 µM, 7x7, partner max 10 µM) | 0.34 | 0.195 |
| Cc1c2c(nn1C)CSCc1cc(n(C)n1)CSc1cc(c3ccccc3c1)OCCCc1c(C(=O)O)n(C)c3c-2c(Cl)ccc13 [AZD5991] + CN(C)CCCOc1ccc(-c2ccc3ncc4c(c3c2)n(C2CCOCC2)c(=O)n4C)cn1 [AZD0156] (first compound max 1 µM, 7x7, partner max 1 µM) | 1 | 0.21 |
| Cc1c2c(nn1C)CSCc1cc(n(C)n1)CSc1cc(c3ccccc3c1)OCCCc1c(C(=O)O)n(C)c3c-2c(Cl)ccc13 [AZD5991] + C[C@@H](Nc1cc(F)cc(F)c1)c1cc(C(=O)N(C)C)cc2c(=O)cc(N3CCOCC3)oc12 [AZD8186] (first compound max 1 µM, 7x7, partner max 3 µM) | 1 | 0.287 |
| CC1(C)CCC(CN2CCN(c3ccc(C(=O)NS(=O)(=O)c4ccc(NCC5CCOCC5)c([N+](=O)[O-])c4)c(Oc4cnc5[nH]ccc5c4)c3)CC2)=C(c2ccc(Cl)cc2)C1 [Venetoclax] + C1CN(CCC1(C(=O)N[C@@H](CCO)C2=CC=C(C=C2)Cl)N)C3=NC=NC4=C3C=CN4 [Capivasertib] (first compound max 1 µM, 7x7, partner max 3 µM) | 1 | 0.206 |
| CN(CCO)CC[C@H](CSc1ccccc1)Nc1ccc(S(=O)(=O)NC(=O)c2ccc(N3CCC([C@@H](O)c4ccccc4-c4ccc(Cl)cc4)CC3)cc2)cc1S(=O)(=O)C(F)(F)F [AZD4320] + C[C@@H](Nc1cc(F)cc(F)c1)c1cc(C(=O)N(C)C)cc2c(=O)cc(N3CCOCC3)oc12 [AZD8186] (first compound max 1 µM, 7x7, partner max 3 µM) | 1 | 0.397 |
| Cc1c2c(nn1C)CSCc1cc(n(C)n1)CSc1cc(c3ccccc3c1)OCCCc1c(C(=O)O)n(C)c3c-2c(Cl)ccc13 [AZD5991] + C[C@@H]1COCCN1C2=NC(=NC(=C2)C3(CC3)[S@](=N)(=O)C)C4=C5C=CNC5=NC=C4 [AZD6738] (first compound max 1 µM, 7x7, partner max 10 µM) | 1 |  |
| COc1nnc2ccc(N3CCC(c4ccc(OCCN5CCN(C)C(=O)[C@H]5C)cc4)CC3)nn12 [AZD5153] + CN(CC[C@H](CSC1=CC=CC=C1)NC2=C(C=C(C=C2)S(=O)(=O)NC(=O)C3=CC=C(C=C3)N4CCC(CC4)[C@H](C5=CC=CC=C5C6=CC=C(C=C6)Cl)O)S(=O)(=O)C(F)(F)F)CCO [AZD4320] (first compound max 1 µM, 7x7, partner max 1 µM) | 1 |  |
| CCc1c2c(nc3ccc(O)cc13)-c1cc3c(c(=O)n1C2)COC(=O)[C@]3(O)CC [SN-38] + O=C(c1cc(Cc2n[nH]c(=O)c3ccccc23)ccc1F)N1CCN(C(=O)C2CC2)CC1 [Olaparib] (first compound max 0.3 µM, 7x7, partner max 10 µM) |  | 0.281 |

— the supplement of paper PMC11061612
